Laboratory results reported in patent US20250188411A1, “METHOD FOR SELECTIVE REMOVAL OF […] PLURIPOTENT STEM CELLS” (Buddhist Tzu Chi Medical Foundation, priority 2023, published 2025).

Columns and labels:
[1] = system: human induced pluripotent stem cells (iPSCs); test: Treatment of cultured human iPSCs with n-butylidenephthalide, cell morphology and survival; assay type: cell-based; conditions: for number of human iPSCs versus control (Ctrl) and DMSO control: 100 μM
Experimental: 1. Culture of iPSCs in Essential 8 Feeder-Free Culture Medium: Human iPSCs were cultured in Essential 8 medium (Gibco) in culture dishes treated with basement membrane matrix (Matrigel). Subculture was performed when the cells reached 70% to 80% confluence, approximately 3 to 5 days. During subculture, the cells were rinsed twice with PBS until the edges began to lift, followed by treatment with a cell dissociation regent (Accutase) for 1 to 5 minutes to round up most of the cells. The cell dissociation regent was then diluted with DMEM/F12, and DMEM medium was added. The cells were scraped with even force by a cell scraper, dispersed into cell mass with appropriate size by mechanical force, and plated at an appropriate ratio (about 1:5 to 1:10) with 10 μM of Y27632 added.
(§1) a. Drug Efficacy and Concentration Testing: n-Butylidenephthalide was diluted to different concentrations and administered to cells at final concentrations ranging from 50 to 750 μM. The types of administered cells include cultured human iPSCs, human iPSCs aggregated into SFEBs for one day, neural stem cells on day 10 of SFEB differentiation, neurons on day 25 of SFEB differentiation, and cells on day 5 of neural differentiation by the adhesion. The concentrations and treatment durations were as described in the Examples.
Human induced pluripotent stem cells (iPSCs) were collected and cultured in Essential 8 medium without a feeder layer. After 24 hours of treatment with different concentrations of n-butylidenephthalide (100 μM, 200 μM, 500 μM, and 750 μM), the cell morphology was shown in FIG. 1A.

[2] = system: embryoid bodies derived from human iPSCs; test: Treatment of embryoid bodies from human iPSCs (SFEB suspension, one day), morphology and trypan blue staining; assay type: cell-based; conditions: 24 hours
Experimental: (§2) Step 1: iPSCs were aggregated into suspended embryoid bodies (EBs), which is an initial step of differentiation. iPSCs were treated with 1 mg/mL Dispase II until the edges rolled up, then rinsed three times with PBS. The iPSCs were collected by a cell scraper and dispersed into cell mass with appropriate size by visual inspection of pipet. After suspended in Essential 6 medium containing RevitaCell, and the iPSCs were transferred to a sterile, non-adherent 6 cm2 culture plate for a 2-day suspension culture, with daily medium changing.
as §1
Cultured and collected iPSCs were aggregated into spheres using the SFEB suspension method and suspended in culture medium to simulate the three-dimensional structure of general pluripotent cell differentiation and transplantation. After only one day of suspension differentiation, the cells aggregated into structurally complete spheres (embryoid bodies).

[3] = system: neural stem cells differentiated from human iPSCs; test: Treatment of neural stem cells on day 10 of SFEB differentiation, morphology and NeuN/NF immunofluorescence; assay type: cell-based
Experimental: (§3) 3. Neural Differentiation of Human iPSCs Using the Serum-Free Embryoid Body (SFEB) Method: The differentiation of iPSCs into neural cells was performed in four steps. The first three steps involved SFEB suspension, in which suspended spheroid cells were cultured for 35 days, and the fourth step is a 3-day cell adhesion growth:
as §2
(§4) Step 2: The EBs were transferred to a 15 mL centrifuge tube for settlement at room temperature, and the EBs were cultured in suspension for 2 days by adding neural induction medium (NI medium, Gibco) after removal of the supernatant. […]
(§5) Step 4: The cells were attached to a culture plate coated with 1% basement membrane matrix or laminin/ornithine. […] The cells grow outward from the center of the colony, and after 3 days of continued culture, the cells were ready for experimentation. […]

[4] = system: neuronal cells differentiated from human iPSCs; test: Treatment of neuronal cell spheroids on day 25 of SFEB differentiation, morphology and NeuN/NF immunofluorescence; assay type: cell-based
Experimental: as §3, §2, §4, §5

[5] = system: differentiated neurons derived from human iPSCs; test: Calcium ion imaging of differentiated neurons after KCl and glutamic acid stimulation; assay type: cell-based; conditions: tested day 38
Experimental: d. Calcium Ion Imaging Analysis: Cells were seeded onto 10 mm diameter coverslips coated with Geltrex and cultured in NB medium supplemented with RevitaCell and Compound E for 3 days. A 1 μM solution of Fluo-4 was prepared in physiological buffer. The coverslips were incubated in the Fluo-4 solution at 37° C. for 40 minutes, followed by incubation in physiological buffer at 37° C. for 20 minutes. The coverslips were then transferred to a calcium imaging chamber for perfusion imaging. The cells were perfused with physiological buffer for 30 seconds, then switched to 60 mM KCl perfusion for one minute, followed by physiological buffer perfusion for five minutes. Subsequently, the cells were perfused with 1 mM L-glutamic acid for one minute, followed by physiological buffer perfusion for five minutes. Images were captured using a Nikon ECLIPSE Ti2-E microscope and analyzed with NIS-Elements AR software.
Three sets of cells were prepared: one set of cells cultured without n-butylidenephthalide treatment (Ctrl), another set cultured with 500 μM n-butylidenephthalide for 120 hours on day 10 of differentiation (NPC-BP500), and a third set cultured with 500 μM n-butylidenephthalide for 120 hours on day 25 of differentiation (Neuron-BP500). […]

[6] = system: undifferentiated pluripotent stem cells expressing Oct-4; test: Oct-4 / N-cadherin immunofluorescence on day 5 of neural stem cell adhesion differentiation; assay type: cell-based, human; conditions: 50, 100 and 200 μM for 24 hours on day 5 of differentiation, FIG. 6
Experimental: 4. Neural Stem Cell Adhesion Differentiation of Human iPSCs (Neural Stem Cell Adhesion Differentiation Method): Human iPSCs, cultured in a feeder-free environment, were subcultured at a 1:10 ratio for neural stem cell differentiation. The differentiation was induced by using a neural induction medium composed of DMEM/F12 (2:1) and N2 supplement, with the addition of basic FGF (10 mg/mL), SB431542 (2 μM), and CHIR99021 (3 μM). The medium was changed every two days with proteins and small molecules re-added. Culture time for this neural stem cell adhesion differentiation is up to 7 days.
as §1
a. Immunofluorescence Staining Method: Chamber slides were surface-treated with 1% basement membrane matrix for 3 to 4 hours, and the slides were set aside after the matrix was removed. […] The slides were stored in the dark at 4° C. for subsequent analysis under a fluorescence microscope. […]

[7] = system: dopamine neurons differentiated from human iPSCs; test: Identification of differentiating dopamine neurons (CHSF-DA method): markers, dopamine ELISA, patch-clamp; assay type: cell-based; conditions: 100 μM on days 23 to 28 of CHSF-DA differentiation, FIGS. 8A to 8M
Experimental: 2. Dopaminergic Neuron Adherent Differentiation of Human iPSCs (CHSF-DA Differentiation Method): Human iPSCs, cultured in feeder-free environment, were subcultured at a 1:10 ratio for dopaminergic neurons differentiation. For induction, a neural induction medium composed of DMEM/F12 (2:1) and N2 supplement were used and dopaminergic precursor cell-inducing factors basic FGF (FGF-basic, as known as FGF-2 or bFGF) (10 mg/mL), SB431542 (2 μM), CHIR99021 (7.5 μM), SAG (1 μM), and LDN193189 (0.2 μM) were added in days 1 to 12 of the differentiation process. On day 13 of the differentiation process, the medium was switched to a neuron culture medium (Neurobasal medium and N2/B27 supplements), with SAG (0.5 μM) added from days 13 to 18. SAG was removed on day 18, and 100 μM of n-butylidenephthalide was added on days 23 to 28 for a total of 6 days. The cells were subsequently cultured in Neurobasal medium with N2/B27 supplements, the medium was changed every 2 days during the differentiation process with proteins and small molecules re-added.
b. Application of n-Butylidenephthalide in Dopaminergic Neuron Preparation: 100 μM of n-Butylidenephthalide was added from days 23 to 28 during the CHSF-DA differentiation process for a total of 6 days.
a. […] The slides were stored in the dark at 4° C. for subsequent analysis under a fluorescence microscope. […]

[8] = system: residual undifferentiated pluripotent stem cells; conditions: early treatment; cited from earlier work

SMILES | number of human iPSCs versus control (Ctrl) and DMSO control ([1]; 24 hours, FIG. 1A) | number of human iPSCs versus control (Ctrl) and DMSO control ([1]; 48 hours, FIG. 1B) | cell morphology of human iPSCs ([1]; 200 μM, 48 hours, FIG. 1B) | adherence and survival of human iPSCs ([1]; concentrations above 500 μM, 24 hours, FIG. 1A) | survival of human iPSCs ([1]; concentrations above 500 μM, 48 hours, FIG. 1B) | viable cells by trypan blue staining ([2]; 200 μM) | viable cells by trypan blue staining ([2]; 500 μM) | morphology of suspended spheres (embryoid bodies) ([2]; 500 μM, FIG. 2) | cell death or morphological changes of suspended neural stem cell spheres ([3]; 50, 100, 200 and 500 μM for 120 hours from day 10 of differentiation, FIG. 3A) | ability of treated neural stem cells to differentiate into mature neurons (NeuN, NF) ([3]; treated from day 10, cultured until day 38, FIG. 3B) | damage to neuronal cell spheroids or cell death ([4]; 50, 100, 200 and 500 μM for 120 hours from day 25 of differentiation, FIG. 4B) | NeuN and NF expression and morphology of treated mature neurons ([4]; treated from day 25, cultured until day 38, FIG. 4C) | calcium ion changes after KCl and glutamic acid stimulation versus Ctrl ([5]; NPC-BP500: 500 μM for 120 hours on day 10 of differentiation) | calcium ion changes after KCl and glutamic acid stimulation versus Ctrl ([5]; Neuron-BP500: 500 μM for 120 hours on day 25 of differentiation) | proportion of undifferentiated pluripotent stem cells expressing Oct-4 [6] | effect on specific protein expression and neurological function of dopamine neurons [7] | presence of residual undifferentiated pluripotent stem cells [8]
CCCC=C1OC(=O)c2ccccc21 [n-butylidenephthalide] | significantly lower | significantly lower | obvious floating and cell death | did not adhere or survive | No cells survived | decrease in viable cells | no viable cells were observed | all dispersed and died | no cell death or morphological changes were observed | able to differentiate normally into mature neurons | no damage to the spheroids or cell death was observed | exhibiting typical nerve fiber morphology | no statistically significant differences | no statistically significant differences | decreased significantly | did not affect the expression of specific proteins or the neurological function of dopamine neurons | 
O=c1c(O)c(-c2ccc(O)c(O)c2)oc2cc(O)cc(O)c12 [quercetin] |  |  |  |  |  |  |  |  |  |  |  |  |  |  |  |  | can reduce
